Laboratory results published in US20220356174A1, “PYRIDIN-2-ONE COMPOUNDS USEFUL AS SMARCA2 ANTAGONISTS” (Epizyme, Inc., priority 2018, published 2022).
Where two headings read alike, the source gives them in different places.

Experiments:
A549 cells = assay: High-throughput proliferation (HTP) assay for A549 cells (CellTiter-Glo, 7 days); format: cell-based; settings: Homo sapiens, 168 h, read-out: A549 SMARCA2 IC50
Procedure, shortened: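 Seven-day growth of A549 (62.5 cells/well, F12K with 10% HI-FBS, 37° C.) with compound, read by CellTiter-Glo ATP luminescence. Percent inhibition scaled between DMSO wells and 10 μM Doxorubicin wells, then fitted for EC50 and IC50.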

[1] = molecular target: T1, FL-SMARCA2 (full-length human SMARCA2 isoform 1) (Homo sapiens, UniProt P51531); assay: SMARCA2 ATPase activity assay (ADP-Glo, chicken mononucleosome substrate); format: biochemical; settings: ATPase assay, enzyme 5 nM, ATP 250 uM, chicken mononucleosome 10 nM, 30 min preincubation
T1 construct: FLAG tag (YKDDDDK) (C); made in house; host or cells: Sf21 insect cells (baculovirus, pFastBacI)

H358 cells = assay: High-throughput proliferation (HTP) assay for H358 cells (CellTiter-Glo, 7 days); format: cell-based; settings: Homo sapiens, NCI-H358, 168 h, read-out: H358 SMARCA2 IC50
Procedure, shortened: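 Cells were plated at 1,000 cells/well in RPMI 1640 + 10% HI-FBS + 1% pen/strep on pre-dispensed compound and incubated 7 days at 37 °C, 5% CO2. Viability was read as ATP luminescence with CellTiter-Glo after 30 min at RT. DMSO served as 0% and 10 µM doxorubicin as 100% inhibition for EC50/IC50.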

FL-SMARCA4 = FL-SMARCA4 (Homo sapiens, UniProt P51532); assay: SMARCA4 ATPase activity assay (ADP-Glo, chicken mononucleosome substrate)
[2] = Table 3d.1, read-out: FL-SMARCA2 IC>50
[3] = FL-SMARCA4 IC>50, Table 3c.2, ATPase assay, enzyme 5 nM, ATP 250 uM, chicken mononucleosome 10 nM, 30 min preincubation

Sequence of FL-SMARCA4 (P51532 whole entry): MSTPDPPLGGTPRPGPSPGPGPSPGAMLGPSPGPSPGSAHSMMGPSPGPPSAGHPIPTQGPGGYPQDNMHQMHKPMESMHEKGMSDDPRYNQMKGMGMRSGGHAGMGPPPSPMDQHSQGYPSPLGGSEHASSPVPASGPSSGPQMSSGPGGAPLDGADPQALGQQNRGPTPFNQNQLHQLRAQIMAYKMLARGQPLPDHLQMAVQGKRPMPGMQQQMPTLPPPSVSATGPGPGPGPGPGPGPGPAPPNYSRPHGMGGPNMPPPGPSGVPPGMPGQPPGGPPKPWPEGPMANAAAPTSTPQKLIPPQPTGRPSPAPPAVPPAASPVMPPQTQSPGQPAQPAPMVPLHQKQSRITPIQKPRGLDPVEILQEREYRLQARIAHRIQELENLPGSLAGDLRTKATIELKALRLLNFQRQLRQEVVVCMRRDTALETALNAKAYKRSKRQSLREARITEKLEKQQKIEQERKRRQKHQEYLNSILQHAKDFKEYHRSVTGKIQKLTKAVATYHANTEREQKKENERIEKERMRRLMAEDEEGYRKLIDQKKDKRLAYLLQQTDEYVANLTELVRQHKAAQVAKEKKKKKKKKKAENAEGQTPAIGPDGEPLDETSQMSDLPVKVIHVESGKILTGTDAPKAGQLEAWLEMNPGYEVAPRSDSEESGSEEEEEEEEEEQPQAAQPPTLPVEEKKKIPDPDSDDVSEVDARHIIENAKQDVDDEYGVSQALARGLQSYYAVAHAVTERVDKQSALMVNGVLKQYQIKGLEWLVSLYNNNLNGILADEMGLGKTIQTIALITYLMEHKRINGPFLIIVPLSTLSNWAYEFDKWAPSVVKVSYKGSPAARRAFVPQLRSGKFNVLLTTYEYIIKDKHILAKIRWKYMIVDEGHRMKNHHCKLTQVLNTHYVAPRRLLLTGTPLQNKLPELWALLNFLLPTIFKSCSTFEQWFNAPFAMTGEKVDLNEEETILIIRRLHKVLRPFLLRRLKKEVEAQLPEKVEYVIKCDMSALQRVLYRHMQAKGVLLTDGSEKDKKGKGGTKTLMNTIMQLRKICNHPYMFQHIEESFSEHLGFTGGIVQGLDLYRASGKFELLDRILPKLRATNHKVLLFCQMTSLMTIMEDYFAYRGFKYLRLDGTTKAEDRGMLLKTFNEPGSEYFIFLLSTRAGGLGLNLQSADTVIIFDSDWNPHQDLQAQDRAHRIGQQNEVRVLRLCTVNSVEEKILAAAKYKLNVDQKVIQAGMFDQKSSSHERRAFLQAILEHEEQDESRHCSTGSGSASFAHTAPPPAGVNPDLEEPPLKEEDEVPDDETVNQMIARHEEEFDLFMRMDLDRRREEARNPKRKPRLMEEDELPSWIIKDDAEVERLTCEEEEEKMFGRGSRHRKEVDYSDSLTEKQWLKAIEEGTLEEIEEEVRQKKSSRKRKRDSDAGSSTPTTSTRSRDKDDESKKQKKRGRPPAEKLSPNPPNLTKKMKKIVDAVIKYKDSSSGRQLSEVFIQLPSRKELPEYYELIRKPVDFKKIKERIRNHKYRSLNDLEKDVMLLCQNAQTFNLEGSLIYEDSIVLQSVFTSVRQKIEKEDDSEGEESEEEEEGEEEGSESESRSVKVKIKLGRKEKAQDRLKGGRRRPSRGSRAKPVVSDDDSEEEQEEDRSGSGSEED
T1 sequence (P51531 with tags, fused parts or gaps): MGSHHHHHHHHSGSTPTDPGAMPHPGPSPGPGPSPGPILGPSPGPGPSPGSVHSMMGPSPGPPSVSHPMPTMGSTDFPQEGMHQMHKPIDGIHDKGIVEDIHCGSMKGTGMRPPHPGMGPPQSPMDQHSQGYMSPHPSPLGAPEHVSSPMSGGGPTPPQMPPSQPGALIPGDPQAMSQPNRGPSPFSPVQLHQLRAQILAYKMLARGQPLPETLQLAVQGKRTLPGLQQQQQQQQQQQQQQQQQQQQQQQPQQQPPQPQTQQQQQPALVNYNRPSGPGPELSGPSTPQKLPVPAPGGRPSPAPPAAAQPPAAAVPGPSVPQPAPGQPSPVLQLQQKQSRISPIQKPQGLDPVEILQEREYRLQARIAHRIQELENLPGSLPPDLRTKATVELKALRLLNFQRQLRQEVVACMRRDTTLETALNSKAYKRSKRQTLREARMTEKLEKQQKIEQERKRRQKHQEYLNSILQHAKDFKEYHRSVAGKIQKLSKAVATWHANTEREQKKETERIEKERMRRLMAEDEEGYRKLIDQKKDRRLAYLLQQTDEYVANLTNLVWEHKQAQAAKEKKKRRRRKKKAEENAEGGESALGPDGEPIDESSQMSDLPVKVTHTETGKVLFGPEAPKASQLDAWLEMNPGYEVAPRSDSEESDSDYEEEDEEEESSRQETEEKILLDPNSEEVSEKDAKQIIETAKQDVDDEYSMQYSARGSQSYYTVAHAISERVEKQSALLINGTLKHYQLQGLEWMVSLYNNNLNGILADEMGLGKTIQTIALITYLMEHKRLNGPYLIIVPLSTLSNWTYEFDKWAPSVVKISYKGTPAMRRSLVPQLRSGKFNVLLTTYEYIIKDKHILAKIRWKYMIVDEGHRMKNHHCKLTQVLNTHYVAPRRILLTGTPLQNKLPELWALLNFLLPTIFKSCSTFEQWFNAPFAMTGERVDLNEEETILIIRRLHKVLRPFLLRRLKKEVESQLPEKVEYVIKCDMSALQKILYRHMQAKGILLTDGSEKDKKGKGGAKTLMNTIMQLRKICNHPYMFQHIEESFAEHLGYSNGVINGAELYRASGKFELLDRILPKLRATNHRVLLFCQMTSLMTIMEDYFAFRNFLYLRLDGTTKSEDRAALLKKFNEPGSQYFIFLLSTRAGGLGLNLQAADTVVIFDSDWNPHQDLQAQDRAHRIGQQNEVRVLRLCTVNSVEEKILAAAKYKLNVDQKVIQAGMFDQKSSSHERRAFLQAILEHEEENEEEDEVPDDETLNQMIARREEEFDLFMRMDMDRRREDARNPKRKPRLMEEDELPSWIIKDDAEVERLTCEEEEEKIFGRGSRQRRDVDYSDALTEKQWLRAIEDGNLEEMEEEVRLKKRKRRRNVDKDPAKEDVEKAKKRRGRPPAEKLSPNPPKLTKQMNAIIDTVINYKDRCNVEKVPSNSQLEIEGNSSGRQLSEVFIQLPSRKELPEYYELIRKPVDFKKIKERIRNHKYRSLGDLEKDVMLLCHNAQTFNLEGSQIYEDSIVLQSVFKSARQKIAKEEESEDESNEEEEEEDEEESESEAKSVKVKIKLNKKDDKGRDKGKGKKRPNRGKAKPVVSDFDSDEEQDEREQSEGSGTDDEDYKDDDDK

Row | IC50 (A549 cells) [µM] | IC50 [1, 2] [µM] | IC50 (H358 cells) [µM] | IC50 (FL-SMARCA4; FL-SMARCA4 IC50) [µM] | IC50 ([1]; Table 3c.1) [µM] | IC50 (FL-SMARCA4; [3]) [µM] | SMILES
1 | > 10 | 1.7 | > 10 | 5.1 |  |  | NCCOCC#Cc1cc(C(=O)Nc2cc(F)c(=O)n(CC(F)F)c2)sc1Cl [Compound 111d]
2 | 9.96 | 0.345 | > 10 | 2.14 |  |  | O=C(Nc1cc(F)c(=O)n(CC(F)F)c1)c1cc(-c2ccco2)c(Cl)s1 [Compound 112d]
3 | 4.03 |  | > 10 |  | 0.0345 | 0.111 | O=C(Nc1cc(F)c(=O)n(CC(F)F)c1)c1cc(C#Cc2c[nH]cn2)c(Cl)s1 [Compound 113c]
4 | > 10 | 0.967 | > 10 | 2.88 |  |  | CN1CC(C#Cc2cc(C(=O)Nc3cc(F)c(=O)n(CC(F)F)c3)sc2Cl)CC1=O (stereo not shown) [Compound 113d]
5 | 2.73 | 0.112 | > 10 | 0.372 |  |  | O=C(Nc1cc(F)c(=O)n(CC(F)F)c1)c1cc(C#CC2COCCO2)c(Cl)s1 (stereo not shown) [Compound 114d]
6 | 2.08 | 0.0358 | > 10 | 0.0993 |  |  | O=C(Nc1cc(F)c(=O)n(CC(F)F)c1)c1cc(C#Cc2ccc3nccn3c2)c(Cl)s1 [Compound 115d]
7 | 3.79 |  | > 10 |  | 0.206 | 0.547 | O=C1CC(C#Cc2cc(C(=O)Nc3cc(F)c(=O)n(CC(F)F)c3)sc2Cl)CN1 (stereo not shown) [Compound 116c]
8 | 8.92 | 0.252 | > 10 | 0.673 |  |  | O=C(Nc1cc(F)c(=O)n(CC(F)F)c1)c1cc(C#CCn2ccnc2)c(Cl)s1 [Compound 116d]
9 | 1.82 |  | 1.49 |  | 0.00522 | 0.00699 | N#Cc1nc(C#Cc2cc(C(=O)Nc3cc(F)c(=O)n(CC(F)F)c3)sc2Cl)cs1 [Compound 117c]
10 | 1.96 | 22.4 | 2.27 | > 50 |  |  | N#Cc1cc(C(=O)Nc2cc([N+](=O)[O-])c(=O)n(CC(F)F)c2)sc1C(F)(F)F [Compound 117d]
11 | 7.18 | 0.245 | > 10 | 0.544 |  |  | CN1CC(C#Cc2cc(C(=O)Nc3cc(F)c(=O)n(CC(F)F)c3)sc2Cl)CCC1=O (stereo not shown) [Compound 118d]
12 | > 10 | 0.961 | > 10 | 2.22 |  |  | O=C(Nc1cc(F)c(=O)n(CC(F)F)c1)c1cc(C#CC2CCn3cnnc3C2)c(Cl)s1 (stereo not shown) [Compound 119d]
13 | > 10 |  | > 10 |  | 0.0909 | 0.239 | NC(=O)Cn1cc(C#Cc2cc(C(=O)Nc3cc(F)c(=O)n(CC(F)F)c3)sc2Cl)cn1 [Compound 120c]
14 | 2.12 | 0.0701 | > 10 | 0.201 |  |  | O=C(Nc1cc(F)c(=O)n(CC(F)F)c1)c1cc(C#C[C@H]2CCC[C@@H](O)C2)c(Cl)s1 [Compound 120d]
15 | > 10 |  | > 10 |  | 0.191 | 0.384 | CNC(=O)Cn1cc(C#Cc2cc(C(=O)Nc3cc(F)c(=O)n(CC(F)F)c3)sc2Cl)cn1 [Compound 121c]
16 | 5.03 | 16.8 | 7.38 | 17.3 |  |  | CC1(C)CC(C#Cc2cc(C(=O)Nc3cc(F)c(=O)n(CC(F)F)c3)sc2Cl)CC(C)(C)N1 [Compound 121d]
17 | 4.6 |  | > 10 |  | 0.052 | 0.13 | O=C(Nc1cc(F)c(=O)n(CC(F)F)c1)c1cc(C#Cc2cnn(CCO)c2)c(Cl)s1 [Compound 122c]
18 | 8.44 | 0.253 | > 10 | 0.835 |  |  | O=C(Nc1cc(F)c(=O)n(CC(F)F)c1)c1cc(C#Cc2ccc3ccnn3c2)c(Cl)s1 [Compound 122d]
19 | 3.98 |  | > 10 |  | 0.471 | 1.07 | CN(C)CCn1cc(C#Cc2cc(C(=O)Nc3cc(F)c(=O)n(CC(F)F)c3)sc2Cl)cn1 [Compound 123c]
20 | > 10 | 0.52 | > 10 | 1.58 |  |  | O=C(Nc1cc(F)c(=O)n(CC(F)F)c1)c1cc(C#CCn2cccn2)c(Cl)s1 [Compound 123d]
21 | 1.07 |  | 7.23 |  | 0.0109 | 0.0177 | Nc1cc(C#Cc2cc(C(=O)Nc3cc(F)c(=O)n(CC(F)F)c3)sc2Cl)ccn1 [Compound 124c]
22 | > 10 | > 50 | > 10 | > 50 |  |  | O=C(Nc1cc(F)c(=O)n(CC(F)F)c1)c1cc(-c2ccco2)on1 [Compound 124d]

Row | IC50 (A549 cells) [µM] | IC50 [1, 2] [µM] | IC50 (H358 cells) [µM] | IC50 (FL-SMARCA4; FL-SMARCA4 IC50) [µM] | IC50 ([1]; Table 3c.1) [µM] | IC50 (FL-SMARCA4; [3]) [µM] | SMILES
23 | 4.46 |  | > 10 |  | 0.0522 | 0.166 | NCc1nc(C#Cc2cc(C(=O)Nc3cc(F)c(=O)n(CC(F)F)c3)sc2Cl)cs1 [Compound 125c]
24 | 4.01 |  | > 10 |  | 0.235 | 0.957 | O=C(Nc1cc(F)c(=O)n(CC(F)F)c1)c1cc(C#Cc2csc(C(F)(F)F)n2)c(Cl)s1 [Compound 126c]
25 | > 10 | 1.58 | > 10 | 4.37 |  |  | O=C(Nc1cc(F)c(=O)n(CC(F)F)c1)c1cc(C#CCn2cnnc2)c(Cl)s1 [Compound 126d]
26 | > 10 | 0.586 | > 10 | 1.45 |  |  | O=C(Nc1cc(F)c(=O)n(CC(F)F)c1)c1cc(C#CCn2cncn2)c(Cl)s1 [Compound 127d]
27 | 5.13 |  | 3.89 |  | 0.211 | 0.823 | CN(C)Cc1cccc(C#Cc2cc(C(=O)Nc3cc(F)c(=O)n(CC(F)F)c3)sc2Cl)c1 [Compound 128c]
28 | 3.24 | > 50 | 4.05 | > 50 |  |  | Cn1cc(C#Cc2cc(C(=O)Nc3cc([N+](=O)[O-])c(=O)n(CC(F)F)c3)sc2C(F)(F)F)cn1 [Compound 128d]
29 | > 10 |  | > 10 |  | 0.0513 | 0.143 | CNC(=O)c1cncc(C#Cc2cc(C(=O)Nc3cc(F)c(=O)n(CC(F)F)c3)sc2Cl)c1 [Compound 129c]
30 | 2.17 | 0.0584 | > 10 | 0.161 |  |  | O=C(Nc1cc(F)c(=O)n(CC(F)F)c1)c1cc(C#C[C@H]2CCC[C@H](O)C2)c(Cl)s1 [Compound 129d]
31 | 1.21 |  | > 10 |  | 0.0166 | 0.044 | CNC(=O)c1cc(C#Cc2cc(C(=O)Nc3cc(F)c(=O)n(CC(F)F)c3)sc2Cl)ccn1 [Compound 130c]
32 | 3.37 | 0.0309 | 6.75 | 0.132 |  |  | O=C(Nc1cc(F)c(=O)n(CC(F)F)c1)c1cc(C#Cc2nncs2)c(Cl)s1 [Compound 130d]
33 | > 10 |  | > 10 |  | 0.00868 | 0.0137 | O=C(O)c1cccc(C#Cc2cc(C(=O)Nc3cc(F)c(=O)n(CC(F)F)c3)sc2Cl)c1 [Compound 131c]
34 | > 10 | > 50 | > 10 | > 50 |  |  | CC(N)C#Cc1sc(C(=O)Nc2cc(F)c(=O)n(CC(F)F)c2)cc1Cl (stereo not shown) [Compound 131d]
35 | 7.99 | > 50 | > 10 | > 50 |  |  | CN1CCCC(C#Cc2sc(C(=O)Nc3cc(F)c(=O)n(CC(F)F)c3)cc2Cl)C1 (stereo not shown) [Compound 132d]
36 | 2.89 | 0.0461 | > 10 | 0.165 |  |  | O=C(Nc1cc(F)c(=O)n(CC(F)F)c1)c1cc(C#C[C@H]2C[C@H](CO)C2)c(Cl)s1 [Compound 133d]
37 | 0.909 |  | 3.89 |  | 0.00812 | 0.0128 | N#Cc1sc(C(=O)Nc2cc(F)c(=O)n(CC(F)F)c2)cc1C#Cc1ccncc1 [Compound 134c]
38 | 1.33 | 0.0188 | > 10 | 0.0587 |  |  | O=C(Nc1cc(F)c(=O)n(CC(F)F)c1)c1cc(C#C[C@H]2C[C@@H](CO)C2)c(Cl)s1 [Compound 134d]
39 | 2.38 | 0.16 | > 10 | 0.334 |  |  | O=C(Nc1cc(F)c(=O)n(CC(F)F)c1)c1cc(C#CC23CC(CO)(C2)C3)c(Cl)s1 [Compound 135d]
40 | 0.734 |  | > 10 |  | 0.0263 | 0.117 | O=C(Nc1cc(F)c(=O)n(CC(F)F)c1)c1cc(C#Cc2cocn2)c(Cl)s1 [Compound 136c]
41 | 2.22 | 0.0419 | > 10 | 0.0852 |  |  | C[C@]1(C#Cc2cc(C(=O)Nc3cc(F)c(=O)n(CC(F)F)c3)sc2Cl)C[C@@H](O)C1 [Compound 136d]
42 | > 10 | > 50 | > 10 | > 50 |  |  | N#Cc1cc(C(=O)Nc2cc(C(N)=O)c(=O)n(CC(F)F)c2)sc1C(F)(F)F [Compound 137d]
43 | > 10 | 1.68 | > 10 | 4.61 |  |  | CC(N)C#Cc1cc(C(=O)Nc2cc(F)c(=O)n(CC(F)F)c2)sc1Cl (stereo not shown) [Compound 138d]
